Values quoted from earlier work as cited in patent EP1707213A1, “Herbal composition for the treatment of cutaneous Erythema” (Kern, Elisabeth, priority 2005, dated 2006).
Where two headings read alike, the source gives them in different places.

Experiments:
[1] = test system: durch Doxil induziertes Hand-Fuß-Syndrom; settings: patients with hand-foot syndrome of Grade 2 bis 4 under Doxil

O=c1[nH]cc(F)c(=O)[nH]1 [Zusammensetzung 5-FU, 5-Fluorouracil]
palmoplantare Erythrodysästhesie als häufigste Nebenwirkung (Patienten; use as cytostatic): 50 % der Patienten

CCCCCOC(=O)Nc1nc(=O)n([C@@H]2O[C@H](C)[C@@H](O)[C@H]2O)cc1F [Capecitabin, N4-Pentyloxycarbonyl-5'desoxy-Fluorocytidin]
palmoplantare Erythrodysästhesie als häufigste Nebenwirkung (Patienten; in vivo): 50 % der Patienten

C[C@@H]1C[C@H]2[C@@H]3CCC4=CC(=O)C=C[C@]4(C)[C@@]3(F)[C@@H](O)C[C@]2(C)[C@@]1(O)C(=O)CO [Dexamethason]
Fortführung der Chemotherapie mit der ursprünglichen Dosierung von Doxil [1]: möglich
